Patent US20180221352A1, “3-(1H-PYRROLO[2,3-C]PYRIDIN-2-YL)-1H-PYRAZOLO[3,4-B]PYRIDINES AND THERAPEUTIC USES THEREOF” (Samumed, LLC, priority 2015, published 2018)

How the values were obtained:
Type in all cases: cell-based
IL-6 = IL-6 inhibition in LPS-stimulated THP-1 cells (HTRF); details: Homo sapiens; for EC50: THP-1 cells, LPS 500 ng/mL, 22 hours, IL6 HTRF; for inhibition at 10 µM: THP-1, read-out: percent inhibition at 10 μM
Description: THP-1 cells were cultured in basal media with 1% FBS for 24 hours before the start of the assay. […] THP-1 cells were plated at 5000 cells/well in the 384-well plates and incubated at 37° C. for 2 h. 500 ng/mL of LPS was added after 2 hours and cells were incubated for another 22 hours at 37° C. Plates were spun in a centrifuge for 1 minute at […] and a mixture of anti-IL6 XL665, and anti-IL6 Cryptate diluted in reconstitution buffer (Cisbio Inc.) was added to each well. Following incubation for 3 hrs at room temperature, Homogeneous Time-Resolved Fluorescence (HTRF) was measured using the Envision (Perkin Elmer) at 665 nm and […]. The ratio of fluorescence at 665 nm to 620 nm was used as a readout for IL6 quantification. All samples were processed in duplicate. Readings were normalized to DMSO treated cells and normalized activities were utilized for EC50 calculations using the dose-response log (inhibitor) vs. response−variable slope (four parameters) nonlinear regression feature available in GraphPad Prism 5.0 (or Dotmatics).

[1] = system: primary human mesenchymal stem cells (hMSCs); assay: Induction of chondrogenesis in hMSCs (nodule count); details: 6 days, relative to TGF-β3 (10 ng/mL) positive control, read-out: Max. Activity as % TGF-β3 activity
From the text: Representative compounds were screened using primary human mesenchymal stem cells (hMSCs) to determine their ability to induce chondrogenesis (process by which cartilage is developed).
Primary human mesenchymal stem cells (hMSCs) were purchased from Lonza (Walkersville, Md.) and expanded in Mesenchymal Stem Cell Growth Media (Lonza). Cells between passage 3 and 6 were used for the experiments.
To image chondrogenic nodules, the cells were fixed using 4% formaldehyde (Electron Microscopy Sciences), and stained with 2 μg/mL Rhodamine B (Sigma-Aldrich) and 20 μM Nile Red (Sigma-Aldrich) [Johnson K., et. al, A Stem Cell-Based Approach to Cartilage Repair, Science, (2012). […] Number of nodules in each well was normalized to the average of 3 DMSO treated wells on the same plate using Excel (Microsoft Inc.). The normalized averages (fold change over DMSO) of 3 replicate wells for each compound concentration were calculated. Due to solubility limitations of some of the compounds, curve fitting was incomplete leading to inaccurate EC50 determinations.
Using TGF-β3 as a positive control, the concentration of representative compounds required to induce 50% levels of chondrogenesis is reported. In addition, the maximum activity of each compound and the respective dose that each compound reached maximum chondrogenesis activity is reported.

SW480 colon cancer cells = assay: Cell viability assay (CellTiter-Blue); details: Homo sapiens; for EC50: 96 h, SW480 cell viability, four days; for inhibition at 10 µM: SW480, 96 h, read-out: percent inhibition at 10 μM
Description: Representative compounds were screened using the following assay procedure to assess the effect on cell viability as described below.
Approximately 2×10^3 SW480 colon cancer cells were seeded into each well and allowed to incubate in the presence or absence of compound for four days at 37° C./5% CO2. Eight replicates of DMSO-treated cells served as controls and cells treated with compound were performed in duplicate.
After incubation, 20 μL of CellTiter-Blue (Promega) was added to each well allowed to incubate for approximately 3 hours. This reagent was a buffered solution which contains resazurin, metabolically active cells were able to reduce rezarurin (blue) into resorufin (pink) which was highly fluorescent. This measured fluorescence was used as a readout for cell viability.

[2] = system: Wnt activity (Sp5-Luc reporter, SW480 colon carcinoma cells); assay: Wnt activity screening assay, Sp5-Luc reporter gene in SW480 cells; details: Homo sapiens; for EC50: Sp5-Luc reporter, SW480 cells, overnight incubation; for inhibition at 10 µM: SW480, read-out: percent inhibition at 10 μM
From the text: The screening assay for Wnt activity is described as follows. Reporter cell lines can be generated by stably transducing cancer cell lines (e.g., colon cancer) or primary cells (e.g., IEC-6 intestinal cells) with a lentiviral construct that includes a Wnt-responsive promoter driving expression of the firefly luciferase gene.
SW480 colon carcinoma cells were transduced with a lentiviral vector expressing luciferase with a human Sp5 promoter consisting of a sequence of eight TCF/LEF binding sites. SW480 cells stably expressing the Sp5-Luc reporter gene and a hygromycin resistance gene were selected by treatment with 150 μg/mL of hygromycin for 7 days. These stably transduced SW480 cells were expanded in cell culture and used for all further screening activities. […] For Sp5-Luc reporter gene assays, the cells were plated at 4,000 cells/well in 384-well plates with medium containing 1% fetal bovine serum and incubated overnight at 37° C. and 5% CO2. Following incubation, 20 μl of BrightGlo luminescence reagent (Promega) was added to each well of the 384-well assay plates. The plates were placed on an orbital shaker for 2 min and then luminescence was quantified using the Envision (Perkin Elmer) plate reader. Readings were normalized to DMSO only treated cells, and normalized activities were utilized for EC50 calculations using the dose-response log (inhibitor) vs. response−variable slope (four parameters) nonlinear regression feature available in GraphPad Prism 5.0 (or Dotmatics).

[3] = system: primary human fibroblasts derived from IPF patients (LL29 cells); assay: Inhibition of fibrotic process, αSMA staining in TGF-β1 treated fibroblasts; details: Fibroblast; for EC50: 96 h, LL29 cells, TGF-β1 20 ng/mL, 4 days, % αSMA positive cells; for inhibition at 10 µM: read-out: percent inhibition at 10 μM
Description: Representative compounds were screened using primary human fibroblasts (derived from IPF patients) treated with TGF-β1 to determine their ability to inhibit the fibrotic process.
LL29 cells are plated at 1,500 cells/well in 80 μL/well F12 medium supplemented with 1% Fetal Bovine Serum. […] Wells treated with TGF-31 and containing DMSO were used as controls. […] Following incubation for 4 days, SYTOX green nucleic acid stain (Life Technologies [Thermo Fisher Scientific]) was added to the wells at a final concentration of 1 μM and incubated at room temperature for 30 min.

SMILES: Cc1ccncc1-c1cnc2[nH]nc(-c3cc4c(-c5cccnc5)cncc4[nH]3)c2c1 [Compound 89, 5-(4-Methylpyridin-3-yl)-3-(4-(pyridin-3-yl)-1H-pyrrolo[2,3-c]pyridin-2-yl)-1H-pyrazolo[3,4-b]pyridine]
- EC50 (IL-6): 3.45 µM
- Emax [1]: 17%
- EC50 (SW480 colon cancer cells): 3.29 µM
- EC50 [2]: 2.25 µM
- EC50 [3]: 1.48 µM

SMILES: Fc1cccc(-c2cncc3[nH]c(-c4n[nH]c5ncc(C6CCNCC6)cc45)cc23)c1 [Compound 505, 3-(4-(3-Fluorophenyl)-1H-pyrrolo[2,3-c]pyridin-2-yl)-5-(piperidin-4-yl)-1H-pyrazolo[3,4-b]pyridine]
- EC50 (IL-6): 4.09 µM
- EC50 (SW480 colon cancer cells): > 10 µM
- inhibition at 10 µM (SW480 colon cancer cells): 7%
- inhibition at 10 µM [2]: 17.5%
- EC50 [2]: > 10 µM
- EC50 [3]: > 10 µM
- inhibition at 10 µM [3]: 0%

SMILES: CCC(=O)Nc1cncc(-c2cnc3[nH]nc(-c4cc5c(-c6cccnc6)cncc5[nH]4)c3c2)c1 [Compound 85, N-(5-(3-(4-(Pyridin-3-yl)-1H-pyrrolo[2,3-c]pyridin-2-yl)-1H-pyrazolo[3,4-b]pyridin-5-yl)pyridin-3-yl)propionamide]
- inhibition at 10 µM (IL-6): 34.1%
- EC50 (IL-6): > 10 µM
- EC50 (SW480 colon cancer cells): > 10 µM
- inhibition at 10 µM (SW480 colon cancer cells): 10%
- inhibition at 10 µM [2]: 9.3%
- EC50 [2]: > 10 µM
- EC50 [3]: > 10 µM
- inhibition at 10 µM [3]: 44.2%

SMILES: O=C(Nc1cncc(-c2cnc3[nH]nc(-c4cc5c(N6CCCCC6)cncc5[nH]4)c3c2)c1)c1ccccc1 [Compound 179, N-(5-(3-(4-(Piperidin-1-yl)-1H-pyrrolo[2,3-c]pyridin-2-yl)-1H-pyrazolo[3,4-b]pyridin-5-yl)pyridin-3-yl)benzamide]
- inhibition at 10 µM (IL-6): 36.1%
- EC50 (IL-6): > 10 µM
- EC50 (SW480 colon cancer cells): 3.84 µM
- inhibition at 10 µM [2]: 45.1%
- EC50 [2]: > 10 µM
- EC50 [3]: 4.59 µM

SMILES: Fc1cccc(-c2cncc3[nH]c(-c4n[nH]c5ncc(-c6ccncc6)cc45)cc23)c1 [Compound 18, 3-(4-(3-Fluorophenyl)-1H-pyrrolo[2,3-c]pyridin-2-yl)-5-(pyridin-4-yl)-1H-pyrazolo[3,4-b]pyridine]
- inhibition at 10 µM (IL-6): 20.3%
- EC50 (IL-6): > 10 µM
- EC50 (SW480 colon cancer cells): 1.91 µM
- EC50 [2]: 4.15 µM
- EC50 [3]: 1.23 µM

SMILES: Fc1ccc(-c2cncc3[nH]c(-c4n[nH]c5ncc(-c6cncc(OC7CCCCC7)c6)cc45)cc23)cc1 [Compound 527, 5-(5-(Cyclohexyloxy)pyridin-3-yl)-3-(4-(4-fluorophenyl)-1H-pyrrolo[2,3-c]pyridin-2-yl)-1H-pyrazolo[3,4-b]pyridine]
- inhibition at 10 µM (IL-6): 21.7%
- EC50 (IL-6): > 10 µM
- EC50 (SW480 colon cancer cells): 2.6 µM
- EC50 [2]: 7.28 µM
- EC50 [3]: 4.35 µM

SMILES: c1ccc(-c2cnc3[nH]nc(-c4cc5c(-c6cccnc6)cncc5[nH]4)c3c2)nc1 [Compound 112, 5-(Pyridin-2-yl)-3-(4-(pyridin-3-yl)-1H-pyrrolo[2,3-c]pyridin-2-yl)-1H-pyrazolo[3,4-b]pyridine]
- inhibition at 10 µM (IL-6): 16.9%
- EC50 (IL-6): > 10 µM
- EC50 (SW480 colon cancer cells): 3.68 µM
- inhibition at 10 µM [2]: 44.2%
- EC50 [2]: > 10 µM
- EC50 [3]: 2.19 µM

SMILES: O=C(Nc1cncc(-c2cnc3[nH]nc(-c4cc5c(-c6cccc(F)c6)cncc5[nH]4)c3c2)c1)c1ccccc1 [Compound 11, N-(5-(3-(4-(3-Fluorophenyl)-1H-pyrrolo[2,3-c]pyridin-2-yl)-1H-pyrazolo [3,4-b]pyridin-5-yl)pyridin-3-yl)benzamide]
- inhibition at 10 µM (IL-6): 20.2%
- EC50 (IL-6): > 10 µM
- EC50 (SW480 colon cancer cells): > 10 µM
- inhibition at 10 µM (SW480 colon cancer cells): 16.8%
- inhibition at 10 µM [2]: 22.5%
- EC50 [2]: > 10 µM
- EC50 [3]: 7.57 µM

SMILES: c1ncc(-c2cnc3[nH]nc(-c4cc5c(N6CCCCC6)cncc5[nH]4)c3c2)cc1CN1CCCCC1 [Compound 183, 3-(4-(Piperidin-1-yl)-1H-pyrrolo[2,3-c]pyridin-2-yl)-5-(5-(piperidin-1-ylmethyl)pyridin-3-yl)-1H-pyrazolo[3,4-b]pyridine]
- inhibition at 10 µM (IL-6): 20.3%
- EC50 (IL-6): > 10 µM
- EC50 (SW480 colon cancer cells): 3.17 µM
- EC50 [2]: 4.98 µM
- EC50 [3]: 2.4 µM

SMILES: O=C(Nc1cncc(-c2cnc3[nH]nc(-c4cc5c(N6CCCCC6)cncc5[nH]4)c3c2)c1)C1CCCCC1 [Compound 191, N-(5-(3-(4-(Piperidin-1-yl)-1H-pyrrolo[2,3-c]pyridin-2-yl)-1H-pyrazolo[3,4-b]pyridin-5-yl)pyridin-3-yl)cyclohexanecarboxamide]
- EC50 (IL-6): 6.43 µM
- EC50 (SW480 colon cancer cells): 4.09 µM
- EC50 [2]: 9.12 µM
- EC50 [3]: 5.63 µM

SMILES: c1ncc(-c2cnc3[nH]nc(-c4cc5c(-c6ccoc6)cncc5[nH]4)c3c2)cn1 [Compound 335, 3-(4-(Furan-3-yl)-1H-pyrrolo[2,3-c]pyridin-2-yl)-5-(pyrimidin-5-yl)-1H-pyrazolo[3,4-b]pyridine]
- EC50 (IL-6): 2.52 µM
- EC50 (SW480 colon cancer cells): > 10 µM
- inhibition at 10 µM (SW480 colon cancer cells): 47%
- inhibition at 10 µM [2]: 24.9%
- EC50 [2]: > 10 µM
- EC50 [3]: 4.77 µM

SMILES: CC(C)C(=O)Nc1cncc(-c2cnc3[nH]nc(-c4cc5c(-c6ccoc6)cncc5[nH]4)c3c2)c1 [Compound 317, N-(5-(3-(4-(Furan-3-yl)-1H-pyrrolo[2,3-c]pyridin-2-yl)-1H-pyrazolo[3,4-b]pyridin-5-yl)pyridin-3-yl)isobutyramide]
- EC50 (IL-6): 2.08 µM
- EC50 (SW480 colon cancer cells): 9.97 µM
- EC50 [2]: 3.62 µM
- EC50 [3]: 1.69 µM

SMILES: O=C(Nc1cncc(-c2cnc3[nH]nc(-c4cc5c(-c6cccc(F)c6)cncc5[nH]4)c3c2)c1)C1CCC1 [Compound 21, N-(5-(3-(4-(3-Fluorophenyl)-1H-pyrrolo[2,3-c]pyridin-2-yl)-1H-pyrazolo [3,4-b]pyridin-5-yl)pyridin-3-yl)cyclobutanecarboxamide]
- EC50 (IL-6): 0.324 µM
- EC50 (SW480 colon cancer cells): 0.586 µM
- EC50 [2]: 0.532 µM
- EC50 [3]: 0.31 µM

SMILES: CC(C)(C)CC(=O)Nc1cncc(-c2cnc3[nH]nc(-c4cc5c(-c6ccccc6F)cncc5[nH]4)c3c2)c1 [Compound 72, N-(5-(3-(4-(2-Fluorophenyl)-1H-pyrrolo[2,3-c]pyridin-2-yl)-1H-pyrazolo [3,4-b]pyridin-5-yl)pyridin-3-yl)-3,3-dimethylbutanamide]
- EC50 (IL-6): 3.12 µM
- EC50 (SW480 colon cancer cells): 0.747 µM
- EC50 [2]: 1.01 µM
- EC50 [3]: 0.384 µM
